Measured values: patent US8017162B2, “Anti-inflammatory agent” (Oryza Oil & Fat Chemical Co., Ltd., priority 2005, dated 2011)
“And” between values parts separate entries of the source, which are not always exact repeats. Identical values can stand only once. “Also recorded” adds a separate entry of the source.

Experiments:
[1] = tested on: RAW264.7 cells; experiment: NO production inhibition test (LPS, Griess Method); type: cell-based, mouse
Experimental: A 200 microliter each of the continuously-cultivated RAW264.7 cells (10^6 cells/mL) should be seeded into 48-well plate. After 24 hours, replace the culture medium with a serum-free culture medium. Then, add the LPS (final concentration: 10 microgram/mL) and samples (Examples 1 & 2), and then cultivate for 24 hours. Collect the supernatant (100 microliter) and determine the amount of NO by the Griess Method.

[2] = tested on: adjuvant arthritis; experiment: Preventive effect on adjuvant arthritis: edema volume of the tarsus (footpad volume); type: in vivo, rats
Description: Firstly, subcutaneously administer the adjuvant to the right tarsus of the rats under the following condition so that the arthritis is caused in the mice. On the second day that the arthritis is induced, orally administer the red ginger extract to the rats for four consecutive weeks by the following method, and regularly observe the tarsus edema of the rats and the anti-inflammatory effect of the test substance. Weigh at once the two-day doses of the red ginger extract as the test substance described in Example 1, and use the red ginger extract suspended with the 0.5% CMC-Na. At this time, prepare the high-dose test substance (10 mg/5 mL/kg). Then, […] the liquid to prepare the low-dose test substance (1 mg/5 mL/kg). Weigh the necessary amount of Indomethacin (Lot No. 122K0718, Sigma-Aldrich, Inc.) which is commercially available. Then prepare freshly the positive control substance with the injection solvent until it becomes 0.5 mg/5 mL/kg. Then, dispose of it after all the administrations have been completed. 2. Firstly, obtain 28 mice (7-week-old, SD (CrjBgi:CD) IGS mice, male SPF) from ORIENT CO., LTD. Then, quarantine and naturalize the mice for more than 7 days. After observing the mice during the period of naturalization and quarantine, use the mice that are alive and which have no problems in the weight and general status. When the mice were grouped, the weight ranged from 279.3 to 328.7 g. When the inflammation was induced, the weight ranged from 283.7 to 333.9 g. When the autopsy was conducted, the weight ranged from 293.4 g to 440.8 g. 3. Administration The test substance was forcibly administered to the mice through a stomach sonde or syringe once a day for a period of 28 days after the inflammation was induced. As shown in the chart below, there are 4 groups, and each group has seven examples (i.e. 7 mice). The test substance was orally administered to each mouse for 28 days from the day after the inflammation was induced. During the period when the test substance was administered, the edema of the right tarsus of each mouse was X-rayed twice a week. From the day after the test was completed, the right and left tarsuses of each mouse were X-rayed twice a week, and the effect of the test substance on the bone was verified. The solution (1.0 mg/0.1 mL) was made from 1 mL of FREUND'S INCOMPLETE ADJUTANT (FIA) and 10 mg of killed bacteria (fungus body)—MYCOBACTERIUM BUTYRICUM (Lot Ni. 5129117, Difco). The FIA and the killed bacteria were sufficiently suspended, and then approx. […] of the solution was administered to the subcutaneous of the footpads of the right, hind leg of each mouse. To verify the degree and the increase of the edema volume before and after the adjuvant was induced, the footpad volume of the right hind leg was measured by using Digital Pletysmometer, LE7500 (Panlab SL, Spain) twice each time immediately before the adjuvant was induced, and again on Days 3, 6, 10, 13, 17, 20, 24 and 27 after the adjuvant was induced. Each measured value was determined by Dunnet's Test using the Graphad Instat Program (Ver. 4.5, USA), and the significant difference test was conducted.

[3] = tested on: adjuvant arthritis; experiment: Adjuvant arthritis: X-ray determination of tarsus and interphalangeal articulation (radiographic index); type: in vivo, rats; settings: 0.5 mg/kg
Description: Firstly, subcutaneously administer the adjuvant to the right tarsus of the rats under the following condition so that the arthritis is caused in the mice. On the second day that the arthritis is induced, orally administer the red ginger extract to the rats for four consecutive weeks by the following method, and regularly observe the tarsus edema of the rats and the anti-inflammatory effect of the test substance. 2. Firstly, obtain 28 mice (7-week-old, SD (CrjBgi:CD) IGS mice, male SPF) from ORIENT CO., LTD. Then, quarantine and naturalize the mice for more than 7 days. After observing the mice during the period of naturalization and quarantine, use the mice that are alive and which have no problems in the weight and general status. When the mice were grouped, the weight ranged from 279.3 to 328.7 g. When the inflammation was induced, the weight ranged from 283.7 to 333.9 g. When the autopsy was conducted, the weight ranged from 293.4 g to 440.8 g. 3. Administration The test substance was forcibly administered to the mice through a stomach sonde or syringe once a day for a period of 28 days after the inflammation was induced. As shown in the chart below, there are 4 groups, and each group has seven examples (i.e. 7 mice). The test substance was orally administered to each mouse for 28 days from the day after the inflammation was induced. During the period when the test substance was administered, the edema of the right tarsus of each mouse was X-rayed twice a week. From the day after the test was completed, the right and left tarsuses of each mouse were X-rayed twice a week, and the effect of the test substance on the bone was verified. The solution (1.0 mg/0.1 mL) was made from 1 mL of FREUND'S INCOMPLETE ADJUTANT (FIA) and 10 mg of killed bacteria (fungus body)—MYCOBACTERIUM BUTYRICUM (Lot Ni. 5129117, Difco). The FIA and the killed bacteria were sufficiently suspended, and then approx. […] of the solution was administered to the subcutaneous of the footpads of the right, hind leg of each mouse. On the 27th day after the administration was begun, the edema was taken out. The hind leg was affixed with the neutral buffered formalin fixative (10%), and the image of the tarsus articulation area, including the interphalangeal articulation, was taken by a soft X-ray. The tarsus articulation and the interphalangeal articulation were verified by the degrees between −(normal status) and 5+(most serious status). A radiographic index was obtained by the method as shown in Chart 2, below. Add up the figures to determine the severity of the articular destruction. [table]

[4] = 1 μg/mL, LPS 10 microgram/mL, 24 hours, average ± SD
[5] = right leg, individual animals, listed as Indomet hacin
[6] = right leg, individual animals, listed as indomethacin

CCC[C@H](O)CC(=O)CCc1ccc(O)c(OC)c1 [Example 4-gingerol, 4-gingerol]
NO in supernatant [1, 4]: 4.98 ± 0.22 µM
NO in supernatant ([1]; 3 μg/mL): 5.10 ± 0.24 µM
NO in supernatant ([1]; 10 μg/mL): 4.98 ± 0.22 µM
NO in supernatant ([1]; 30 μg/mL): 5.03 ± 0.45 µM
NO in supernatant ([1]; 100 μg/mL): 4.98 ± 0.26 µM

CCCCC/C=C/C(=O)CCc1ccc(O)c(OC)c1 [Example 6-shogaol, 6-shogaol]
NO in supernatant [1, 4]: 3.81 ± 0.29 µM
NO in supernatant ([1]; 3 μg/mL): 3.60 ± 0.29 µM
Inhibition ratio (NO production) ([1]; 10 μg/mL): (13.6) %
NO in supernatant ([1]; 10 μg/mL): 3.21 ± 0.31 µM
Inhibition ratio (NO production) ([1]; 30 μg/mL): (29.8) %
NO in supernatant ([1]; 30 μg/mL): 2.79 ± 0.09 µM
Inhibition ratio (NO production) ([1]; 100 μg/mL): (90.7) %
NO in supernatant ([1]; 100 μg/mL): 1.22 ± 0.04 µM
Effect on NO production among the ingredients ([1]; compared with the other components): comparatively strong effect

CCCCCCC[C@H](O)CC(=O)CCc1ccc(O)c(OC)c1 [Example 8-gingerol, 8-gingerol]
Inhibition ratio (NO production) ([1]; 1 μg/mL): (4.7) %
NO in supernatant [1, 4]: 4.17 ± 0.27 µM
Inhibition ratio (NO production) ([1]; 3 μg/mL): (7.7) %
NO in supernatant ([1]; 3 μg/mL): 4.06 ± 0.24 µM
Inhibition ratio (NO production) ([1]; 10 μg/mL): (13.3) %
NO in supernatant ([1]; 10 μg/mL): 3.86 ± 0.32 µM
Inhibition ratio (NO production) ([1]; 30 μg/mL): (20.7) %
NO in supernatant ([1]; 30 μg/mL): 3.59 ± 0.21 µM
Inhibition ratio (NO production) ([1]; 100 μg/mL): (31.5) %
NO in supernatant ([1]; 100 μg/mL): 3.20 ± 0.17 µM

CCCCCCCCC[C@H](O)CC(=O)CCc1ccc(O)c(OC)c1 [Example 10-gingerol, 10-gingerol]
NO in supernatant [1, 4]: 4.44 ± 0.27 µM
NO in supernatant ([1]; 3 μg/mL): 4.32 ± 0.16 µM
NO in supernatant ([1]; 10 μg/mL): 4.33 ± 0.50 µM
NO in supernatant ([1]; 30 μg/mL): 4.28 ± 0.72 µM
Inhibition ratio (NO production) ([1]; 100 μg/mL): (21.1) %
NO in supernatant ([1]; 100 μg/mL): 3.55 ± 0.08 µM

CCCCCCCCC/C=C/C(=O)CCc1ccc(O)c(OC)c1 [Example 10-shogaol, 10-shogaol]
Inhibition ratio (NO production) ([1]; 1 μg/mL): (23.4) %
NO in supernatant [1, 4]: 2.78 ± 0.10 µM
Inhibition ratio (NO production) ([1]; 3 μg/mL): (18.5) %
NO in supernatant ([1]; 3 μg/mL): 2.88 ± 0.11 µM
Inhibition ratio (NO production) ([1]; 10 μg/mL): (24.4) %
NO in supernatant ([1]; 10 μg/mL): 2.76 ± 0.10 µM
Inhibition ratio (NO production) ([1]; 30 μg/mL): (28.3) %
NO in supernatant ([1]; 30 μg/mL): 2.68 ± 0.70 µM
Inhibition ratio (NO production) ([1]; 100 μg/mL): (31.2) %
NO in supernatant ([1]; 100 μg/mL): 2.62 ± 0.71 µM

COc1ccc2c(c1)c(CC(=O)O)c(C)n2C(=O)c1ccc(Cl)cc1 [Indomethacin]
Edema volume of the tarsus, right tarsus ([2]; 0.5 mg/kg oral once a day, Day 0 (before induction)): 1.81 ± 0.07 mL
Edema volume of the tarsus, right tarsus ([2]; 0.5 mg/kg, Day 3): 3.35 ± 0.18 mL
Edema volume of the tarsus, right tarsus ([2]; 0.5 mg/kg, Day 3, listed as indomethacin): 3.35 mL
Edema volume of the tarsus, right tarsus ([2]; 0.5 mg/kg, Day 6): 3.69 ± 0.40 mL
Edema volume of the tarsus, right tarsus ([2]; 0.5 mg/kg, Day 10): 3.69 ± 0.36 mL
Edema volume of the tarsus, right tarsus ([2]; 0.5 mg/kg, Day 13): 3.40 ± 0.43 mL
Edema volume of the tarsus, right tarsus ([2]; 0.5 mg/kg, Day 17): 3.11 ± 0.59 mL
Edema volume of the tarsus, right tarsus ([2]; 0.5 mg/kg, Day 20): 3.18 ± 0.52 mL
Edema volume of the tarsus, right tarsus ([2]; 0.5 mg/kg, Day 24): 3.19 ± 0.51 mL
Edema volume of the tarsus, right tarsus ([2]; 0.5 mg/kg, Day 24, listed as indomethacin): 3.19 mL
Edema volume of the tarsus, right tarsus ([2]; 0.5 mg/kg, Day 27): 2.89 ± 0.34 mL
Degree of disorder compared to the vehicle group [3]: remarkably suppressed
Result (X-ray determination) ([3]; right leg, individual animals): 2+ (Moderate(−): 2+; 2points)
Interphal angeal articulation: Bone destruction [3, 5]: − (Normal: −; 0 point); also recorded: + (Mild: +; 1 point)
Interphal angeal articulation: Periostitis [3, 5]: + (Mild: +; 1 point); also recorded: − (Normal: −; 0 point)
Interphal angeal articulation: Total [3, 5]: 1 points (5×) and 0 points and 2 points
Tarsus articulation: Bone destruction [3, 5]: − (Normal: −; 0 point); also recorded: + (Mild: +; 1 point)
Tarsus articulation: Periostitis [3, 5]: 2+ (Moderate(−): 2+; 2points) (6×) and 3+ (Moderate(+): 3+; 3 ponts)
Tarsus articulation: Total [3, 5]: 2 points (2×) and 3 points (4×) and 4 points
Interphal angeal articulation: Bone destruction [3, 6]: + (Mild: +; 1 point)
Interphal angeal articulation: Periostitis [3, 6]: + (Mild: +; 1 point)
Tarsus articulation: Bone destruction [3, 6]: + (Mild: +; 1 point)
